Experiment: excess molar enthalpy (molar enthalpy of mixing); xn = mol fraction of the nth substance listed
Conditions: 313.15 K, 100 kPa

CCC(=O)O + C1CCCCC1
Conditions | excess molar enthalpy [kcal/mol]
x1 = 0.0571 | 0.0337
x1 = 0.108 | 0.0657
x1 = 0.1537 | 0.0913
x1 = 0.195 | 0.112
x1 = 0.3264 | 0.154
x1 = 0.4209 | 0.168
x1 = 0.4921 | 0.171
x1 = 0.5924 | 0.167
x1 = 0.6856 | 0.147
x1 = 0.744 | 0.129
x1 = 0.8134 | 0.0982
x1 = 0.8971 | 0.0507
x1 = 0.9208 | 0.0359
x1 = 0.9458 | 0.0196

CCC(=O)O + C1CCOCC1
Conditions | excess molar enthalpy [kcal/mol]
x1 = 0.0528 | -0.0263
x1 = 0.1003 | -0.0504
x1 = 0.1433 | -0.0679
x1 = 0.1823 | -0.0813
x1 = 0.3085 | -0.112
x1 = 0.4009 | -0.121
x1 = 0.6675 | -0.101
x1 = 0.8006 | -0.0648
x1 = 0.8893 | -0.0335
x1 = 0.9146 | -0.0229
x1 = 0.9414 | -0.0127
x1 = 0.9698 | -0.00598

CCC(=O)O + C1COCCO1
Conditions | excess molar enthalpy [kcal/mol]
x1 = 0.087 | -0.0294
x1 = 0.125 | -0.0351
x1 = 0.16 | -0.039
x1 = 0.2222 | -0.0406
x1 = 0.2759 | -0.0392
x1 = 0.3636 | -0.0318
x1 = 0.4325 | -0.0239
x1 = 0.5334 | -0.0103
x1 = 0.6957 | 0.0131
x1 = 0.7742 | 0.0206
x1 = 0.8728 | 0.0203
x1 = 0.9014 | 0.0174
x1 = 0.9648 | 0.00813

CCC(=O)O + CCCCCCCC
Conditions | excess molar enthalpy [kcal/mol]
x1 = 0.1539 | 0.065
x1 = 0.2144 | 0.0856
x1 = 0.2668 | 0.104
x1 = 0.3531 | 0.126
x1 = 0.4212 | 0.138
x1 = 0.5219 | 0.146
x1 = 0.5928 | 0.146
x1 = 0.7661 | 0.11
x1 = 0.8137 | 0.0932
x1 = 0.8676 | 0.0715
x1 = 0.8973 | 0.0566
x1 = 0.9291 | 0.0406

CCC(=O)O + Cc1cc(C)cc(C)c1
Conditions | excess molar enthalpy [kcal/mol]
x1 = 0.0444 | 0.0055
x1 = 0.0548 | 0.00574
x1 = 0.0718 | 0.00598
x1 = 0.134 | 0.00335
x1 = 0.1884 | -0.000239
x1 = 0.2364 | -0.00287
x1 = 0.3171 | -0.00526
x1 = 0.3824 | -0.00717
x1 = 0.4815 | -0.00813
x1 = 0.5532 | -0.0086
x1 = 0.65 | -0.00813
x1 = 0.7359 | -0.00645
x1 = 0.7879 | -0.00574
x1 = 0.8479 | -0.0043
x1 = 0.9176 | -0.00287
x1 = 0.9571 | -0.00191
